From publication PMC11053168, “Agonist-selective activation of individual G-proteins by muscarinic receptors” (Scientific Reports, 2024)
Where two headings read alike, the source gives them in different places.

Legend:
[1] = target: T1, M1 muscarinic receptor (Homo sapiens, UniProt P11229); assay: [3H]NMS competition binding, membranes from CHO cells expressing M1; settings: competition with [3H]NMS, mean ± SD, three experiments, read-out: Binding affinity, negative logarithm of Ki (converted)
T1 construct: membranes
T1 sequence (P11229 1-460): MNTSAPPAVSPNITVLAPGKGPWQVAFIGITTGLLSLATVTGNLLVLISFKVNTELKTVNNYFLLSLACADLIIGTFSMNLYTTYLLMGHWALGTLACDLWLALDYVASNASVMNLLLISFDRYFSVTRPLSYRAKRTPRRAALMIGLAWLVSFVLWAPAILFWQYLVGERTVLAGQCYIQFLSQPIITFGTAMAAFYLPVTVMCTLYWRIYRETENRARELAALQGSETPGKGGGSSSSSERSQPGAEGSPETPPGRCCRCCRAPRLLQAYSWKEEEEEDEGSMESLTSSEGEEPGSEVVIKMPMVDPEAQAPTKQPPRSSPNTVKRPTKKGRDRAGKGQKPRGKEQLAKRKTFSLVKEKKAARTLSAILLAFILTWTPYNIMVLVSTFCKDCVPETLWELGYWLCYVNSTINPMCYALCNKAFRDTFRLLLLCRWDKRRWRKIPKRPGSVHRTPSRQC
Experimental: (§1) Cells were cultured as described previously by Randakova et al.[33]. […] The medium was supplemented with 5 mM butyrate for the last 24 h of culture to increase receptor expression. Cells were washed with (phosphate-buffered saline (PBS), mechanically harvested by scraper and centrifugated 1000 × g for 5 min. Cell pellets were kept at − 80 °C.
(§2) Membranes were prepared as described previously by Randakova et al.[33]. Cells harvested from twenty 100 mm petri dishes (CHO) or 30 ml of cell suspension (Sf9) were suspended in 20 ml of ice-cold incubation medium (100 mM NaCl, 20 mM Na-HEPES, 10 mM MgCl2, pH 7.4) supplemented with 10 mM EDTA and homogenized on ice by two 30‐s strokes using a Polytron homogenizer (Ultra-Turrax; Janke & Kunkel GmbH & Co. KG, IKA-Labortechnik, Staufen, Germany) with a 30 s pause between strokes. Cell homogenates were centrifuged for 5 min at 1000×g to remove whole cells and cell nuclei. The resulting supernatants were centrifuged for 30 min at 30,000×g. Pellets were suspended in a fresh incubation medium, incubated on ice for 30 min, and centrifuged again. The resulting membrane pellets were kept at − 80 °C until assayed within 10 weeks.
(§3) Non-specific binding was determined in the presence of 10 μM unlabelled atropine. Incubations were terminated by filtration through filtration plates multiscreen 96 well Harvest (Merck Millipore) using a Brandel cell harvester (Brandel, Gaithersburg, MD, USA). Filtration plates were dried in a microwave oven, and then 40 μl of liquid scintillator Rotiscint eco plus (Roth) was added. The filtration plates were counted in the Microbeta scintillation counter (PerkinElmer). […] The inhibition constant KI was calculated according to Eq. (2).
(§4) Inhibition constants KI were calculated according to Eq. (2).2 KI=IC50/1+D/KD where IC50 is calculated according to Eq.

[2] = target: T2, M2 muscarinic receptor (Homo sapiens, UniProt P08172); assay: [3H]NMS competition binding, membranes from CHO cells expressing M2
T2 construct: membranes
T2 sequence (P08172 1-466): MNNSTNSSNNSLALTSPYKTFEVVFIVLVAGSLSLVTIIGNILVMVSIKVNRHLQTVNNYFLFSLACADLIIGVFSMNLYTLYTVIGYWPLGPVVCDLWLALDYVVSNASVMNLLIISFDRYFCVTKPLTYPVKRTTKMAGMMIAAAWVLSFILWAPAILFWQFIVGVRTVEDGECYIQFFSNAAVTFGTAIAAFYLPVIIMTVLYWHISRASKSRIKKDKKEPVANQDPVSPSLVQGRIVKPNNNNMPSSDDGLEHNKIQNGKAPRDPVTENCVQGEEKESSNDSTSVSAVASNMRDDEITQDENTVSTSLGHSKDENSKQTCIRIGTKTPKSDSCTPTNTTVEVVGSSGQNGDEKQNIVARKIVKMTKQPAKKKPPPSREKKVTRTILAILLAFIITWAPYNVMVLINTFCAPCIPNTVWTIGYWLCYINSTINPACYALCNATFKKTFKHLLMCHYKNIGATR
Experimental: as §1, §2, §3, §4

[3] = target: T3, M3 muscarinic receptor (Homo sapiens, UniProt P20309); assay: [3H]NMS competition binding, membranes from CHO cells expressing M3; settings: competition with [3H]NMS, mean ± SD, three experiments, read-out: Binding affinity, negative logarithm of Ki (converted)
T3 construct: membranes
T3 sequence (P20309 whole entry): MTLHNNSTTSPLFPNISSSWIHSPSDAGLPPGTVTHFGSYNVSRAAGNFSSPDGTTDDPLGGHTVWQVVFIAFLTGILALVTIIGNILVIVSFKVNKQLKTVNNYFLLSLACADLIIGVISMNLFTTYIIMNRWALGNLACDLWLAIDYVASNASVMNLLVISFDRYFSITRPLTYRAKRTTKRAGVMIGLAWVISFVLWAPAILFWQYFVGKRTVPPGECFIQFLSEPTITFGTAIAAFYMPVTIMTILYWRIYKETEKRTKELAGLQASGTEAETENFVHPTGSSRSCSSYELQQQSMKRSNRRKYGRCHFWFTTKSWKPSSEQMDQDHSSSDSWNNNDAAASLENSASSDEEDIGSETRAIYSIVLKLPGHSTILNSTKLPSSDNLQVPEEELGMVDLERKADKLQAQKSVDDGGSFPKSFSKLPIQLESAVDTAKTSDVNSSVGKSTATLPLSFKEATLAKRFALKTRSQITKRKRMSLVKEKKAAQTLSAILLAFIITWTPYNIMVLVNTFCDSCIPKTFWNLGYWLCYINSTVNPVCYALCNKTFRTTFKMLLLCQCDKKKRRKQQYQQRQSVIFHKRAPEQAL
Experimental: as §1, §2, §3, §4

[4] = target: T4, M4 muscarinic receptor (Homo sapiens, UniProt P08173); assay: [3H]NMS competition binding, membranes from CHO cells expressing M4
T4 construct: membranes
T4 sequence (P08173 1-479): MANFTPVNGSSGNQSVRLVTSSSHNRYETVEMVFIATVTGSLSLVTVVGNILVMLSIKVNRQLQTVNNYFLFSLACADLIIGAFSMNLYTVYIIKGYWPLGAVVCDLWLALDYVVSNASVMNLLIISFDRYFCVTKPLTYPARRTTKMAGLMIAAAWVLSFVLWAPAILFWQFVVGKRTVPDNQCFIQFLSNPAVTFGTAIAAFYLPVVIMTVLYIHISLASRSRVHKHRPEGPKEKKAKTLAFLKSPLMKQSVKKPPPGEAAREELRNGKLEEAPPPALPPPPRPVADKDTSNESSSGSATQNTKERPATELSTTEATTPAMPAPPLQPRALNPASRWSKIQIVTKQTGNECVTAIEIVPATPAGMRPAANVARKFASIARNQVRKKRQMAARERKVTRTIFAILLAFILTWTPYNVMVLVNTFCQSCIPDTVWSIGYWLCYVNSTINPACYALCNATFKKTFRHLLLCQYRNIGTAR
Experimental: as §1, §2, §3, §4

[5] = target: T5, M5 muscarinic receptor (Homo sapiens, UniProt P08912); assay: [3H]NMS competition binding, membranes from CHO cells expressing M5
T5 construct: membranes
T5 sequence (P08912 1-532): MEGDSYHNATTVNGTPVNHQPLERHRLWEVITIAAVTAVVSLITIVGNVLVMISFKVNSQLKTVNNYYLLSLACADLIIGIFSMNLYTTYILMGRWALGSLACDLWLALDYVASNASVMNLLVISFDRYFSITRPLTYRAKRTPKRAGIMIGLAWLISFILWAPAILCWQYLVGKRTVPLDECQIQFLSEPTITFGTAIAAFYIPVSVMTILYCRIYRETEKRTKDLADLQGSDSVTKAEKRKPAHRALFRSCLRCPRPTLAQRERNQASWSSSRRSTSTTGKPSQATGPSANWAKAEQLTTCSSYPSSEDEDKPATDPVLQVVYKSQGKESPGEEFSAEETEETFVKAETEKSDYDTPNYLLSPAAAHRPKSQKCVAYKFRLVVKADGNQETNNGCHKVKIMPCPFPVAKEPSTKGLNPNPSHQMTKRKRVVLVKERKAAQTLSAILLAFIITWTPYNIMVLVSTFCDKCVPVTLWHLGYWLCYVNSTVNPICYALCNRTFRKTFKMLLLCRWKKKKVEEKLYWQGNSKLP
Experimental: as §1, §2, §3, §4

[6] = target: T6, M2 receptor (Homo sapiens, UniProt P08172); assay: Agonist-stimulated GTPγ[35S] binding to Sf9 membranes expressing M2 receptor and individual Gαi/o; type: biochemical; set-up: host or cells: Sf9 insect cells, baculovirus (pFastBac1 / Bac-to-Bac); membranes; settings: for Activation of individual Gi/o Gα types: M2 with GαoA, GαoB, Gαi1, Gαi2, Gαi3
T6 sequence (P08172 1-466): T2 sequence (P08172 1-466)
Experimental: Baculoviral stocks for expression of M2 receptor and individual Gα-subunits of Gi/o G-proteins (GαoA, GαoB, Gαi1, Gαi2, Gαi3) in SF9 cells were generated according to Bac-to-Bac® baculovirus expression system—user guide (https://assets.thermofisher.com/TFS-Assets/LSG/manuals/MAN0000414_BactoBacExpressionSystem_UG.pdf). […] After 96 h at 27 °C, baculoviral viral particles released into the medium were harvested. After centrifugation at 500×g for 10 min to remove detached cells and cell debris, baculoviral stock P0 was ready for amplification. Suspension of Sf9 cells at density 2 × 10^6 cells per ml was infected by baculoviral stock P0 in ratio 1:1000 and after 72 h of growth (in a shaking incubator at 135 rpm and 27 °C) the amplified baculoviral stock P1 was harvested. The cell suspension was centrifugated at 500×g for 10 min to remove cells and cell debris and the supernatant containing a high level of baculoviral particles P1 was collected. FBS to the concentration of 0.5% was added and the stock was stored at 4 °C, protected from light for up to 6 months. For the quantification of baculoviral particles, a plaque assay was used.
Cells were grown in suspension culture in 250 ml Erlenmeyer flasks in Sf-900™ III serum-free medium in an aerated shaking incubator at 27 °C and 135 rpm. Cells were maintained at the density of 1–4 × 10^6 cells per ml. Sf9 cells at the density 2 × 10^6 were co-infected with baculoviral stock for the M2 receptor and a particular Gi/o Gα in the ratio (1:10). […] Infected cells were harvested by centrifugation 1000×g for 10 min. Cell pellets were kept at − 80 °C.
as §2
Agonist stimulated GTPγ[^35S]binding to membranes from Sf9 cells expressing the M2 receptors in a combination with α-subunit of given Gi/o type (GαoA, GαoB, Gαi1, Gαi2, Gαi3) was measured in 96-well plates in a final volume of 200 µl of incubation medium described above containing 500 pM of GTPγ[^35S] […] Nonspecific binding was determined in the presence of 1 µM nonlabelled GTPγS. Incubations were terminated and processed as described above. Parameters of functional response were calculated according to Eq. (3) after subtraction of non-specific binding.
The basal value of GTPγ[^35S] binding was determined in the absence of the agonist. After subtraction of non-specific binding determined in the presence of 10 μM nonlabelled GTPγS, GTPγ[^35S]binding was divided by the basal value and expressed as folds over basal. […] Then Eq. (3) was fitted to the data using GraphPad. Obtained EMAX and EC50 values were used to calculate RAi values using Eq. (7). To determine τ and KA of the functional responses system EMAX was determined as described earlier. Basal values were subtracted and functional responses were expressed as fractions of system EMAX. […] Obtained τ and KA values were used to calculate the bias factor according to Eq. (8), see below, for each experiment.
Equation (4) was fitted to data by the two-step procedure described earlier[61]

Compound: c1csc(CN2CCOCC2)c1 [JB-12-1]
- Ki [1]: > 1000 µM
- Ki ([2]; M2, competition with [3H]NMS, mean ± SD, three experiments, read-out: Binding affinity, negative logarithm of Ki (converted)): 302 µM
- Ki [3]: > 1000 µM
- Ki ([4]; M4, competition with [3H]NMS, mean ± SD, three experiments, read-out: Binding affinity, negative logarithm of Ki (converted)): > 1000 µM
- Ki ([5]; M5, competition with [3H]NMS, mean ± SD, three experiments, read-out: Binding affinity, negative logarithm of Ki (converted)): > 1000 µM

Compound: COC(=O)C1=CCC[N+](C)(Cc2cccs2)C1 (centres unmarked) [JB-13-2]
- Ki [1]: 42.7 µM
- Ki [2]: 9.55 µM
- Ki [3]: 126 µM
- Ki [4]: 22.9 µM
- Ki [5]: 97.7 µM

Compound: C[N+](C)(C)CC#CCOC(=O)Nc1cccc(Cl)c1.[Cl-] [Mc-Neil A343, reference compound]
- Bias according to RAi, Gαi2 vs GαoB ([6]; M2, relative to carbachol): 2.3 ×
- Activation of individual Gi/o Gα types [6]: activated all Gi/o Gα

Compound: Clc1ccc2c(c1)N=C(N1CCNCC1)c1ccccc1N2 [NDMC, reference compound]
- Activation of individual Gi/o Gα types [6]: activated all Gi/o Gα

Compound: C[N+](C)(C)CC#CCOC1=NOCC1 [iperoxo, reference compound]
- Bias according to RAi, Gαi3 vs GαoA ([6]; M2, relative to carbachol): 2.5 times
- Activation of individual Gi/o Gα types [6]: activated all Gi/o Gα

Compound: O=C1CCCN1CC#CCN1CCCC1 [oxotremorine, reference compound]
- Bias according to RAi, Gαi2 vs Gαi3 ([6]; M2, relative to carbachol): 2 ×
- Activation of individual Gi/o Gα types [6]: activated all Gi/o Gα
